The results in this text go back to US10278999B2, “Synthesis of Nuxia oppositifolia nanoparticles” (KING SAUD UNIVERSITY, priority 2017, dated 2019).

Common to all, as to assay: Antimicrobial activity, agar diffusion technique
What all share (type): cell-based
Conditions in all cases: mean ± S.D. beyond well diameter (6 mm), 100 μl of samples

The test system of assay [1] is Klebsiella pneumoniae (RCMB 0010093). The protocol: (§1) The antimicrobial effect of N. oppositifolia nanoparticles synthesized according to Example 1 were evaluated against gram positive bacteria, gram negative bacteria, as well as fungi.
(§2) The antimicrobial effect of N. oppositifolia nanoparticles synthesized according to Example 2 were evaluated against gram positive bacteria, gram negative bacteria, as well as fungi.

Assay [2] deals with Proteous vulgaris (RCMB 010085). How it is done: as §1, §2
The subject of assay [3] is Salmonella enteritidis (RCMB 010084). How it is done:
as §1, §2

For assay [4], the system named is Geotricum candidum (RCMB 05097). How it is done:
as §1, §2

Assay [5] deals with Candida albicans (RCMB 05036). The protocol:
as §1, §2

Assay [6] has as its system Absidia corymbifera (RCMB 02564). The protocol: as §1, §2
Assay [7] deals with Streptococcus pyogenes (RCMB 010015). The protocol:
as §1, §2

In assay [8] the test system is Staphylococcus epidermidis (RCMB 010024). The protocol: as §1, §2

Gentamycin: the figures for the “Zone of Inhibition (±SD)” value in assay [1], in assay [2] and in assay [3] were 26.4 ± 0.15 mm, 23.4 ± 0.30 mm and 25.2 ± 0.18 mm, respectively.
Regarding `C[C@@H]1[C@H](O)[C@@H](C)/C=C/C=C/C=C/C=C/C=C/C=C/C=C/[C@H](O[C@@H]2O[C@H](C)[C@@H](O)[C@H](N)[C@@H]2O)C[C@@H]2O[C@](O)(C[C@@H](O)C[C@@H](O)[C@H](O)CC[C@@H](O)C[C@@H](O)CC(=O)O[C@H]1C)C[C@H](O)[C@H]2C(=O)O` [Amphotericin B], the “Zone of Inhibition (±SD)” value in assay [4] stood at 27.0 ± 0.20 mm; in assay [5] it was 25.7 ± 0.10 mm; in assay [6], 23.0 ± 0.10 mm.
For the compound `CC1(C)S[C@@H]2[C@H](NC(=O)[C@H](N)c3ccccc3)C(=O)N2[C@H]1C(=O)O` [Ampicillin], the “Zone of Inhibition (±SD)” value in assay [7] was 26.3 ± 0.34 mm; in assay [8], 25.0 ± 0.18 mm.
